Measured values as given in patent publication US20240165209A1, “PLACENTAL ALKALINE PHOSPHATASE FOR REDUCING THE LOSS OF RED BLOOD CELLS, WHITE BLOOD CELLS, AND PLATELETS IN CHEMOTHERAPY TREATED CANCER PATIENTS” (ZOLTAN LABORATORIES, LLC, priority 2021, published 2024).

Columns and labels:
bone marrow MSCs = assay: DNA synthesis ([3H]thymidine incorporation) in MSCs; format: cell-based, human; details: 20 hours, no PLAP
Text: For the experiment, bone marrow aspirates were taken from normal human adult donors after informed consent. For the preparation of bone marrow MSCs, essentially a widely used technique was used as described earlier by others [Pittenger, M. F., Mackay, A. M., Beck, S. C., et al. (1999) Multilineage potential of adult human mesenchymal stem cells. Science 284, 143-147]. Briefly, nucleated cells were isolated with a pre-prepared commercial density gradient (Lymphoprep, Nycomed, Pharma, Oslo, Norway) and re-suspended in Dulbecco's modified Eagle's medium (DMEM) (GIBCO, Grand Island, NY) supplemented with 10% fetal calf serum (FCS), 50 U/ml of penicillin, and 50 μg/ml of streptomycin (GIBCO). All nucleated cells were plated in 25-cm^2 flasks (BD Falcon, Bedford, MA) at 37° C. in humidified atmosphere containing 5% CO2. After 24 hours, non-adherent cells were removed and cryopreserved in liquid nitrogen until use. The remaining adherent cells were thoroughly washed with Hanks balanced salt solution (HBSS) (GIBCO). Fresh complete culture medium was added and replaced every 3 or 4 days (twice a week). When cells grew to about 80% confluence, they were suspended and harvested by incubating with a ready-made solution containing 0.25% trypsin and 1 mM EDTA (Sigma-Aldrich, St. Louis, MO) for 5 minutes at 37° C.; this cell suspension is designated as passage 1. These cells were further expanded with 1:3-1:5 splitting in 175-cm^2 flasks (BD Falcon). For the determination of DNA synthesis, cells were divided into 12-well plates in the complete medium and let the cells grow to about 60% confluence. After changing the spent medium for fresh complete medium (i.e., containing 10% fetal calf serum), cells were treated for 20 hours with 20-100 μM ATP and/or 200 nM PLAP as well as 50-200 μM Cyp in the absence or presence of 200 nM PLAP. For labeling newly formed DNA, cells received 1,130,000 d.p.m. [^3H] thymidine for the last 4 hours of the treatment period. DNA synthesis was determined as described earlier [She, Q.-B., Mukherjee, J. J., Huang, J.-S., Crilly, K. S. and Kiss, Z. (2000) Growth factor-like effects of placental alkaline phosphatase in human fetus and mouse embryo fibroblasts. FEBS Lett. 469, 163-167]. The data is expressed as d.p.m. [^3H] thymidine incorporated into DNA/well (n=3).

[1] = test system: mouse bone marrow-derived hematopoietic stem cells (HSCs); details: 200 μM Cyp, 3 days, absence of PLAP
Method: Bone marrow was harvested by flushing bones from female C57/BL/6 mice in Fischer medium (Thermo Fisher Scientific; catalogue no. 21475025) containing 20% horse serum (Hyclone, Logan, UT), 100 Unit/ml penicillin, […] streptomycin (Gibco, BRL), 0.015 fungizone (Gibco, BRL), and 0.1 μM hydrocortisone sodium succinate (SynoPharm; Hamburg, Germany). Pooled stem cells were seeded into 25 cm 3 flasks (10 ml cell suspension) and after 3 days of incubation at 33° C. in 5% CO2 in air in the absence of PLAP, they were plated into 12-well plates and were incubated in the absence (n=8) or presence of 50 μg/ml PLAP (n=8) for additional 3 days.
In a follow up experiment with hematopoietic stem cells, the same incubation medium in 12-well plates contained either no other addition (n=8) or contained 200 μM Cyp without (n=8) or with 50 μg/ml PLAP (n=8) for 3 days.

[2] = test system: blood cells (RBCs, WBCs, platelets) of T47D tumor bearing mice; assay: Experiment 1: blood cell counts in Cyp-treated T47D tumor bearing mice, last sample day 9; format: in vivo, mouse; details: Cyp 120 mg/kg i.p. daily x6, PLAP 7.5 mg/kg s.c. days 0, 3, 6
Method: (§1) In the two experiments performed, first-generation hybrid BDF1 (C57BL/6 female×DBA/2 male) 10 weeks old adult female mice bearing T47D tumors (2.6-3.3 cm 3 volume) were used.
In the first group, mice received no treatment. In the second and third groups, mice were administered 120 mg/kg of cyclophosphamide (Cyp) intraperitoneally once a day for 6 consecutive days administered between 10-10.30 AM. In a third group, mice were also administered 7.5 mg/kg of PLAP subcutaneously on days 0, 3 and 6 between 9-9.30 AM. In each group, mice were kept on standard diet (˜15% fat, 65% carbohydrate, and 20% proteins) purchased from Charles River VRFI. Both PLAP (for the 3rd group) and Cyp were dissolved in physiological (0.9%) saline and injected in 50 μl volume. […] The data shown is the average of 6 independent determinations ±S.D.

[3] = test system: blood cells (RBCs, WBCs, platelets) of T47D tumor bearing mice; assay: Experiment 2: blood cell counts in Cyp-treated T47D tumor bearing mice, last sample day 10; format: in vivo, mouse; details: Cyp 120 mg/kg, PLAP 7.5 mg/kg days 0, 2, 4, 6
Method: as §1
The second experiment was performed with T47D tumor bearing mice similarly to the one described to TABLE 2, except that one group of Cyp (120 mg/kg) treated mice were co-treated treated with PLAP (7.5 mg/kg) on days 0, 2, 4, and 6. […] The data shown is the average of 6 independent determinations±S.D.

[4] = test system: nucleated bone marrow cells (BM); assay: Nucleated bone marrow (BM) cells per femur in Cyp treated T47D tumor bearing mice; format: in vivo, mouse; details: Cyp 120 mg/kg i.p. daily x6, PLAP 7.5 mg/kg s.c. days 0, 2, 4, 6
Method: Again, first-generation hybrid BDF1 (C57BL/6 female×DBA/2 male) 10 weeks old adult female mice bearing T47D tumors (2.6-3.3 cm^3) were used. In the first group, mice received no treatment. In the second and third groups, mice were administered 120 mg/kg of Cyp intraperitoneally once a day for 6 consecutive days. In a third group, mice were also administered 7.5 mg/kg of PALP subcutaneously on days 0, 2, 4 and 6. On the days indicated in TABLE 4, the animals were killed, then the bone marrow was flushed from the femurs with Iscove's modified Dulbecco's medium (Gibco BRL, Gaithersburg, MD, USA). This was followed by standard erythrocyte lysis and then by counting the number of nucleated bone marrow (BM) cells per femur using a hemocytometer.

For O.O=P1(N(CCCl)CCCl)NCCCO1 (stereo not shown) [Cyp, 2-[Bis (2-chloroethyl)amino] tetrahydro-2H-1,3,2-oxazaphosphorine 2-oxide monohydrate], the “d.p.m. [^3H] thymidine incorporated into DNA/well” value (bone marrow MSCs; Cyp 50 μM) was 51,684 ± 2.772 d.p.m, the “d.p.m. [^3H] thymidine incorporated into DNA/well” value (bone marrow MSCs; Cyp 200 μM) was 32,536 ± 3,280 d.p.m and the “decrease of the number of cells by Cyp” value [1] was 52%. The Platelets ([2]; day 0) was 1,114 ± 111 ×10^−3/μl, the RBCs ([2]; day 0) was 9.51 ± 1.09 ×10^−6/μl and the WBCs ([2]; day 0) was 7.92 ± 0.72 ×10^−3/μl. For the same compound, the Platelets ([2]; day 3) was 704 ± 98 ×10^−3/μl, the RBCs ([2]; day 3) was 7.28 ± 1.29 ×10^−6/μl and the WBCs ([2]; day 3) was 4.22 ± 0.85 ×10^−3/μl. The Platelets ([2]; day 6) was 404 ± 139 ×10^−3/μl, the RBCs ([2]; day 6) was 4.94 ± 0.63 ×10^−6/μl and the WBCs ([2]; day 6) was 2.73 ± 0.53 ×10^−3/μl. The Platelets ([2]; day 9) was 687 ± 114 ×10^−3/μl, the RBCs ([2]; day 9) was 6.26 ± 0.71 ×10^−6/μl and the WBCs ([2]; day 9) was 5.72 ± 0.49 ×10^−3/μl. For the same compound, the Platelets ([3]; day 0) was 1,185 ± 101^ ×10^−3/μl, the RBCs ([3]; day 0) was 9.51 ± 0.70 ×10^−6/μl and the WBCs ([3]; day 0) was 8.86 ± 0.61 ×10^−3/μl. The Platelets ([3]; day 6) was 372 ± 57 ×10^−3/μl, the RBCs ([3]; day 6) was 4.83 ± 0.62 ×10^−6/μl and the WBCs ([3]; day 6) was 2.79 ± 0.47 ×10^−3/μl. The Platelets ([3]; day 10) was 746 ± 92 ×10^−3/μl, the RBCs ([3]; day 10) was 6.88 ± 0.61 ×10^−6/μl and the WBCs ([3]; day 10) was 6.15 ± 0.45 ×10^−3/μl. For the same compound, the “Nucleated BM cells/femur” value ([4]; day 0) was 14.11 ± 1.50 ×10^6, the “Nucleated BM cells/femur” value ([4]; day 3) was 9.32 ± 2.32 ×10^6 and the “Nucleated BM cells/femur” value ([4]; day 6) was 3.10 ± 2.26 ×10^6. The “Nucleated BM cells/femur” value ([4]; day 9) was 4.90 ± 2.17 ×10^6.
